Assay results reported in patent US4156724A, “N-acylamino-alpha-arylacetamido cephalosporins and antibacterial compositions and methods containing them” (Sumitomo Chemical Company, Limited, priority 1974, dated 1979).
Converted amounts (≈) assume the structure as drawn.

Experiments:
Assay type in all cases: cell-based
[1] = tested on: Staphylococcus aureus 209 P; assay: Minimum Inhibitory Concentration, Staphylococcus aureus 209 P; conditions: Staphylococcus aureus 209 P; for MIC: read-out: Minimum Inhibitory Concentration
Method: (§1) anti-microbial activity tests were carried out on the compounds obtained in the Examples.

[2] = tested on: Staphylococcus aureus FS 289; assay: Minimum Inhibitory Concentration, Staphylococcus aureus FS 289; conditions: Staphylococcus aureus FS 289, strain resistant to penicillin; for MIC: FS289, read-out: Minimum Inhibitory Concentration
Method: as §1
*Staphylococcus aureus FS 289: strain resistant to penicillin

Escherichia coli NIHJ = assay: Minimum Inhibitory Concentration, Escherichia coli NIHJ; conditions: Escherichia coli NIHJ; for MIC: read-out: Minimum Inhibitory Concentration
Method: as §1

[3] = tested on: Klebsiella pneumoniae 602; assay: Minimum Inhibitory Concentration, Klebsiella pneumoniae 602; conditions: for MIC: Klebsiella pneumoniae, 602, Klebsiella pneumoniae 602, read-out: Minimum Inhibitory Concentration
Method: as §1

Proteus vulgaris HX 19 = assay: Minimum Inhibitory Concentration, Proteus vulgaris HX 19; conditions: Proteus vulgaris HX 19; for MIC: HX19, read-out: Minimum Inhibitory Concentration
Method: as §1

[4] = tested on: Pseudomonas aeruginosa 104; assay: Minimum Inhibitory Concentration, Pseudomonas aeruginosa 104; conditions: Pseudomonas aeruginosa 104; for MIC: read-out: Minimum Inhibitory Concentration
Method: as §1

Serratia No. 72 = assay: Minimum Inhibitory Concentration, Serratia No. 72
Method: as §1

[5] = tested on: Enterobacter aerogeneus No. 75; assay: Minimum Inhibitory Concentration, Enterobacter aerogeneus No. 75; conditions: Enterobacter aerogeneus No. 75; for MIC: read-out: Minimum Inhibitory Concentration
Method: as §1

SMILES	MIC [1] [µg/mL]	MIC [2] [µg/mL]	MIC (Escherichia coli NIHJ) [µg/mL]	MIC [3] [µg/mL]	MIC (Proteus vulgaris HX 19) [µg/mL]	MIC [4] [µg/mL]	MIC (Serratia No. 72) [µg/mL]	MIC [5] [µg/mL]	Minimum Inhibitory Concentration [1] [µg/mL]	Minimum Inhibitory Concentration [2] [µg/mL]	Minimum Inhibitory Concentration (Escherichia coli NIHJ) [µg/mL]	Minimum Inhibitory Concentration ([3]; Klebsiella pneumoniae 602) [µg/mL]	Minimum Inhibitory Concentration (Proteus vulgaris HX 19) [µg/mL]	Minimum Inhibitory Concentration [4] [µg/mL]	Minimum Inhibitory Concentration (Serratia No. 72) [µg/mL]	Minimum Inhibitory Concentration [5] [µg/mL]
CC(=O)OCC1=C(C(=O)O)N2C(=O)C(NC(=O)[C@H](NC(=O)c3cnccc3O)c3cccc(N)c3)C2SC1 (stereo partly drawn) [Example 51, 7-[D-α-(4-Hydroxypyridine-3-carbonamide)-α -m-aminophenylacetamido]cephalosporanic acid]	0.39 (≈ 0.72 µM)	3.13 (≈ 5.78 µM)	12.5 (≈ 23.1 µM)	12.5 (≈ 23.1 µM)	0.2 (≈ 0.369 µM)	6.25 (≈ 11.5 µM)	> 200	25 (≈ 46.2 µM)	–	–	–	–	–	–	–	–
Cc1nnc(SCC2=C(C(=O)O)N3C(=O)C(NC(=O)[C@H](NC(=O)c4cnc5cccnc5c4O)c4ccc(N)cc4)C3SC2)s1 (stereo partly drawn) [Example 52, 7-[D-α-(4-Hydroxy-1,5-naphthyridine-3-carbonamido)-α-p-aminophenylacetamido]-3-(2-methyl-1,3,4-thiadiazol-5yl)thiomethyl-3-cephem-4-carboxylic acid]	1.56 (≈ 2.35 µM)	6.25 (≈ 9.4 µM)	1.56 (≈ 2.35 µM)	3.13 (≈ 4.71 µM)	0.1 (≈ 0.15 µM)	6.25 (≈ 9.4 µM)	12.5 (≈ 18.8 µM)	3.13 (≈ 4.71 µM)	–	–	–	–	–	–	–	–
CC(=O)OCC1=C(C(=O)O)N2C(=O)C(NC(=O)C(NC(=O)c3cnc4cccnc4c3O)c3cccc(N)c3)C2SC1 (stereo not drawn) [Example 53]	1.56 (≈ 2.63 µM)	6.25 (≈ 10.5 µM)	3.13 (≈ 5.28 µM)	1.56 (≈ 2.63 µM)	0.39 (≈ 0.658 µM)	6.25 (≈ 10.5 µM)	50 (≈ 84.4 µM)	6.25 (≈ 10.5 µM)	–	–	–	–	–	–	–	–
Nc1cccc(C(NC(=O)c2cnc3cccnc3c2O)C(=O)NC2C(=O)N3C(C(=O)O)=C(CSc4cnn[nH]4)CSC23)c1 (stereo not drawn) [Example 54]	0.78 (≈ 1.23 µM)	6.25 (≈ 9.86 µM)	1.56 (≈ 2.46 µM)	3.13 (≈ 4.94 µM)	0.1 (≈ 0.158 µM)	3.13 (≈ 4.94 µM)	12.5 (≈ 19.7 µM)	3.13 (≈ 4.94 µM)	–	–	–	–	–	–	–	–
Cn1nnnc1SCC1=C(C(=O)[O-])N2C(=O)C(NC(=O)C(NC(=O)c3cnc4cccnc4c3O)c3cccc(N)c3)C2SC1.[Na+] (stereo not drawn) [Example 55]	–	–	–	–	–	–	–	–	0.78	3.13	1.56	3.13	0.1	3.13	12.5	3.13
Cc1nnc(SCC2=C(C(=O)O)N3C(=O)C(NC(=O)C(NC(=O)c4cnccc4O)c4ccc(N)cc4)C3SC2)s1 (stereo not drawn) [Example 56]	0.39 (≈ 0.635 µM)	6.25 (≈ 10.2 µM)	6.25 (≈ 10.2 µM)	6.25 (≈ 10.2 µM)	0.1 (≈ 0.163 µM)	6.25 (≈ 10.2 µM)	50 (≈ 81.5 µM)	12.5 (≈ 20.4 µM)	–	–	–	–	–	–	–	–
Cn1nnnc1SCC1=C(C(=O)O)N2C(=O)C(NC(=O)C(NC(=O)c3cnccc3O)c3cccc(N)c3)C2SC1 (stereo not drawn) [Example 57]	0.39 (≈ 0.653 µM)	6.25 (≈ 10.5 µM)	6.25 (≈ 10.5 µM)	6.25 (≈ 10.5 µM)	0.1 (≈ 0.167 µM)	6.25 (≈ 10.5 µM)	50 (≈ 83.7 µM)	12.5 (≈ 20.9 µM)	–	–	–	–	–	–	–	–
CC(=O)OCC1=C(C(=O)O)N2C(=O)C(NC(=O)C(NC(=O)c3ccnnc3O)c3ccc(N)cc3)C2SC1 (stereo not drawn) [Example 58]	0.39 (≈ 0.719 µM)	3.13 (≈ 5.77 µM)	12.5 (≈ 23 µM)	12.5 (≈ 23 µM)	0.2 (≈ 0.369 µM)	6.25 (≈ 11.5 µM)	> 200	25 (≈ 46.1 µM)	–	–	–	–	–	–	–	–
Nc1cccc(C(NC(=O)c2ccnnc2O)C(=O)NC2C(=O)N3C(C(=O)O)=C(CSc4nncs4)CSC23)c1 (stereo not drawn) [Example 59]	0.39 (≈ 0.649 µM)	6.25 (≈ 10.4 µM)	6.25 (≈ 10.4 µM)	6.25 (≈ 10.4 µM)	0.1 (≈ 0.166 µM)	6.25 (≈ 10.4 µM)	50 (≈ 83.2 µM)	12.5 (≈ 20.8 µM)	–	–	–	–	–	–	–	–
Cn1nnnc1SCC1=C(C(=O)O)N2C(=O)C(NC(=O)C(NC(=O)c3ccnnc3O)c3cccc(N)c3)C2SC1 (stereo not drawn) [Example 60]	0.39 (≈ 0.651 µM)	6.25 (≈ 10.4 µM)	6.25 (≈ 10.4 µM)	6.25 (≈ 10.4 µM)	0.1 (≈ 0.167 µM)	6.25 (≈ 10.4 µM)	50 (≈ 83.5 µM)	12.5 (≈ 20.9 µM)	–	–	–	–	–	–	–	–
Cc1nnc(SCC2=C(C(=O)O)N3C(=O)C(NC(=O)C(NC(=O)c4cncnc4O)c4ccc(N)cc4)C3SC2)s1 (stereo not drawn) [Example 61]	0.39 (≈ 0.634 µM)	6.25 (≈ 10.2 µM)	25 (≈ 40.7 µM)	12.5 (≈ 20.3 µM)	0.2 (≈ 0.325 µM)	6.25 (≈ 10.2 µM)	> 200	25 (≈ 40.7 µM)	–	–	–	–	–	–	–	–
CC(=O)OCC1=C(C(=O)O)N2C(=O)C(NC(=O)C(NC(=O)c3cnc4nc(C)ccc4c3O)c3cccc(N)c3)C2SC1 (stereo not drawn) [Example 62]	1.56 (≈ 2.57 µM)	6.25 (≈ 10.3 µM)	12.5 (≈ 20.6 µM)	3.13 (≈ 5.16 µM)	0.39 (≈ 0.643 µM)	6.25 (≈ 10.3 µM)	100 (≈ 165 µM)	25 (≈ 41.2 µM)	–	–	–	–	–	–	–	–
